Patent US4507487A, “Chemical compounds” (Bristol-Myers Company, priority 1983, dated 1985)
Converted amounts (≈) assume the structure as drawn. Read-outs that look alike come from different tables or passages of the source.

How the values were obtained:
[1] = system: Penicillinsensitive S. aureus; test: MIC, two-fold serial agar dilution in Mueller-Hinton agar, group (G+)-Ia; type: cell-based; details: Staphylococcus aureus; (G+)-Ia, penicillin-sensitive S. aureus (5 strains); read-out: Geometric Mean of MIC
Procedure: (§1) In the primary evaluation of the compounds of this invention, the Minimum Inhibitory Concentrations (MIC's) of the compounds were determined by the two-fold serial agar dilution method in Mueller-Hinton agar against 32 strains of test organisms in six groups.

[2] = system: Penicillinresistant S. aureus; test: MIC, two-fold serial agar dilution in Mueller-Hinton agar, group (G+)-Ib; type: cell-based; details: Staphylococcus aureus, read-out: Geometric Mean of MIC
Procedure: as §1
(G+)Ib: Penicillinresistant S. aureus (5 strains)

[3] = system: Cephalothinsensitive E. coli, Kl. pneumoniae and Pr. mirabilis; test: MIC, two-fold serial agar dilution in Mueller-Hinton agar, group (G-)-Ia; type: cell-based; details: (G-)-Ia, cephalothin-sensitive E. coli (2), Kl. pneumoniae (1), Pr. mirabilis (2 strains); read-out: Geometric Mean of MIC
Procedure: as §1
(G-)Ia: Cephalothinsensitive E. coli (2 strains), Kl. pneumoniae (1
strain) and Pr. mirabilis (2 strains)

[4] = system: Cephalothinresistant E. coli and Kl. pneumoniae; test: MIC, two-fold serial agar dilution in Mueller-Hinton agar, group (G-)-Ib; type: cell-based; details: read-out: Geometric Mean of MIC
Procedure: as §1
(G-)Ib: Cephalothinresistant E. coli (3 strains) and Kl. pneumoniae (3

[5] = system: M. morganii, Ent. cloacae and Ser. marcescens; test: MIC, two-fold serial agar dilution in Mueller-Hinton agar, group (G-)-II; type: cell-based; details: read-out: Geometric Mean of MIC
Procedure: as §1
(G-)II: M. morganii (1 strain), Ent. cloacae (2 strains) and Ser.

Ps. aeruginosa = test: MIC, two-fold serial agar dilution in Mueller-Hinton agar, group (G-)-III; type: cell-based; details: Pseudomonas aeruginosa, Ps. aeruginosa (6 strains), read-out: Geometric Mean of MIC
Procedure: as §1

E. coli A15164 = test: MIC against specific test organism; type: cell-based; details: Escherichia coli; E. coli A15164, cephalothin-resistant strain; read-out: Minimum Inhibitory Concentration
Procedure: as §1
(§2) The test method was as described for Table 1.

E. coli Juhl = test: MIC against specific test organism; type: cell-based; details: Escherichia coli, read-out: Minimum Inhibitory Concentration
Procedure: as §1, §2

Ent. cloacae A9656 = test: MIC against specific test organism; type: cell-based; details: Enterobacter cloacae, read-out: Minimum Inhibitory Concentration
Procedure: as §1, §2

K. pneumoniae A9867 = test: MIC against specific test organism; type: cell-based; details: Klebsiella pneumoniae; K. pneumoniae A9867, cephalothin-resistant strain; read-out: Minimum Inhibitory Concentration
Procedure: as §1, §2

K. pneumoniae D11 = test: MIC against specific test organism; type: cell-based; details: Klebsiella pneumoniae, read-out: Minimum Inhibitory Concentration
Procedure: as §1, §2

M. morganii A9553 = test: MIC against specific test organism; type: cell-based; details: Morganella morganii, read-out: Minimum Inhibitory Concentration
Procedure: as §1, §2

Pr. mirabilis A9554 = test: MIC against specific test organism; type: cell-based; details: Proteus mirabilis, read-out: Minimum Inhibitory Concentration
Procedure: as §1, §2

Ps. aeruginosa A15150 = test: MIC against specific test organism; type: cell-based; details: Pseudomonas aeruginosa, read-out: Minimum Inhibitory Concentration
Procedure: as §1, §2

Ps. aeruginosa A20717 = test: MIC against specific test organism; type: cell-based; details: Pseudomonas aeruginosa, read-out: Minimum Inhibitory Concentration
Procedure: as §1, §2

Ps. aeruginosa A9843 = test: MIC against specific test organism; type: cell-based; details: Pseudomonas aeruginosa, read-out: Minimum Inhibitory Concentration
Procedure: as §1, §2

S. aureus BX-1633-2 = test: MIC against specific test organism; type: cell-based; details: Staphylococcus aureus, BX16332; S. aureus BX-1633-2, penicillin-resistant strain; read-out: Minimum Inhibitory Concentration
Procedure: as §1, §2

S. aureus Smith = test: MIC against specific test organism; type: cell-based; details: Staphylococcus aureus, read-out: Minimum Inhibitory Concentration
Procedure: as §1, §2

Ser. marcescens A20019 = test: MIC against specific test organism; type: cell-based; details: Serratia marcescens, read-out: Minimum Inhibitory Concentration
Procedure: as §1, §2

[6] = Mouse blood levels after single intramuscular injection; type: in vivo, mice; details: for concentration at 10 min / concentration at 20 min / concentration at 0.5 h / concentration at 40 min / concentration at 50 min / concentration at 1 h / concentration at 1.5 h / concentration at 2 h: read-out: Mouse Blood Level; for concentration at 0.5 h: 30 minutes; for concentration at 1 h: 60 minutes; for concentration at 1.5 h: 90 minutes; for concentration at 2 h: 120 minutes
Procedure: The absorption of some of the preferred compounds were determined in mice following a single intramuscular injection of the test compound (dissolved in 0.1M phosphate buffer; pH 7) at a dosage of 10, 20 or 40 mg/kg. Blood samples were collected from the orbital sinuses into heparinized capillary tubes and assayed in Nutrient Agar (pH 6.6) using E. coli Ess-22-31 as the test organism. The blood levels at various time intervals, the half-life values (t1/2) and the areas under the curve (AUC) are shown in Table 3.

## CO/N=C(\C(=O)NC1C(=O)N2C(C(=O)[O-])=C(C[n+]3ccsc3SC)CS[C@H]12)c1csc(N)n1 (stereo partly shown) [Example 3, 7-[(Z)-2-(2-Aminothiazol-4-yl)-2-(methoxyimino)acetamido]-3-(2-methylthiothiazolio)methyl-3-cephem-4-carboxylate]
[1]
  MIC: 0.23 µg/mL (≈ 0.437 µM)
[2]
  MIC: 0.8 µg/mL (≈ 1.52 µM)
[3]
  MIC: 0.022 µg/mL (≈ 0.0418 µM)
[4]
  MIC: 0.15 µg/mL (≈ 0.285 µM)
[5]
  MIC: 0.14 µg/mL (≈ 0.266 µM)
Ps. aeruginosa
  MIC: 2 µg/mL (≈ 3.8 µM)
E. coli A15164
  MIC: 0.1 µg/mL (≈ 0.19 µM)
E. coli Juhl
  MIC: 0.025 µg/mL (≈ 0.0475 µM)
Ent. cloacae A9656
  MIC: 0.05 µg/mL (≈ 0.0949 µM)
K. pneumoniae A9867
  MIC: 0.8 µg/mL (≈ 1.52 µM)
K. pneumoniae D11
  MIC: 0.025 µg/mL (≈ 0.0475 µM)
M. morganii A9553
  MIC: 0.2 µg/mL (≈ 0.38 µM)
Pr. mirabilis A9554
  MIC: 0.05 µg/mL (≈ 0.0949 µM)
Ps. aeruginosa A15150
  MIC: 0.8 µg/mL (≈ 1.52 µM)
Ps. aeruginosa A20717
  MIC: 6.3 µg/mL (≈ 12 µM)
Ps. aeruginosa A9843
  MIC: 3.1 µg/mL (≈ 5.89 µM)
S. aureus BX-1633-2
  MIC: 0.8 µg/mL (≈ 1.52 µM)
S. aureus Smith
  MIC: 0.4 µg/mL (≈ 0.76 µM)
Ser. marcescens A20019
  MIC: 0.025 µg/mL (≈ 0.0475 µM)
[6]; 10 mg/kg im
  AUC: 18000 ng·h/mL
  half-life: 47 min
  concentration at 10 min: 14000 ng/mL
  concentration at 20 min: 14000 ng/mL
  concentration at 0.5 h: 12000 ng/mL
  concentration at 40 min: 10000 ng/mL
  concentration at 50 min: 9800 ng/mL
  concentration at 1 h: 6800 ng/mL
  concentration at 1.5 h: 5200 ng/mL
  concentration at 2 h: 3200 ng/mL
[6]; 20 mg/kg im
  AUC: 29000 ng·h/mL
  half-life: 46 min
  concentration at 10 min: 24000 ng/mL
  concentration at 20 min: 22000 ng/mL
  concentration at 0.5 h: 20000 ng/mL
  concentration at 40 min: 17000 ng/mL
  concentration at 50 min: 13000 ng/mL
  concentration at 1 h: 11000 ng/mL
  concentration at 1.5 h: 9500 ng/mL
  concentration at 2 h: 4500 ng/mL
[6]; 40 mg/kg im
  AUC: 60000 ng·h/mL
  half-life: 54 min
  concentration at 10 min: 48000 ng/mL
  concentration at 20 min: 36000 ng/mL
  concentration at 0.5 h: 32000 ng/mL
  concentration at 40 min: 32000 ng/mL
  concentration at 50 min: 24000 ng/mL
  concentration at 1 h: 20000 ng/mL
  concentration at 1.5 h: 15000 ng/mL
  concentration at 2 h: 10000 ng/mL

## CSc1scc[n+]1CC1=C(C(=O)[O-])N2C(=O)C(NC(=O)/C(=N\OC3(C(=O)O)CCC3)c3csc(N)n3)[C@H]2SC1 (stereo partly shown) [Example 2, 7-[(Z)-2-(2-Aminothiazol-4-yl)-2-(1-carboxycyclobut-1-oxyimino)acetamido]-3-(2-methylthiothiazolio)methyl-3-cephem-4-carboxylate]
[1]
  MIC: 0.92 µg/mL (≈ 1.51 µM)
[2]
  MIC: 2.7 µg/mL (≈ 4.42 µM)
[3]
  MIC: 0.025 µg/mL (≈ 0.0409 µM)
[4]
  MIC: 0.4 µg/mL (≈ 0.655 µM)
[5]; (G-)-II, M. morganii (1), Ent. cloacae (2), Ser. marcescens (2 strains)
  MIC: 0.2 µg/mL (≈ 0.327 µM)
Ps. aeruginosa
  MIC: 1.8 µg/mL (≈ 2.95 µM)
E. coli A15164
  MIC: 0.4 µg/mL (≈ 0.655 µM)
E. coli Juhl
  MIC: 0.1 µg/mL (≈ 0.164 µM)
Ent. cloacae A9656
  MIC: 0.05 µg/mL (≈ 0.0819 µM)
K. pneumoniae A9867
  MIC: 3.1 µg/mL (≈ 5.08 µM)
K. pneumoniae D11
  MIC: 0.05 µg/mL (≈ 0.0819 µM)
M. morganii A9553
  MIC: 0.2 µg/mL (≈ 0.327 µM)
Pr. mirabilis A9554
  MIC: 0.025 µg/mL (≈ 0.0409 µM)
Ps. aeruginosa A15150
  MIC: 0.8 µg/mL (≈ 1.31 µM)
Ps. aeruginosa A20717
  MIC: 6.3 µg/mL (≈ 10.3 µM)
Ps. aeruginosa A9843
  MIC: 1.6 µg/mL (≈ 2.62 µM)
S. aureus BX-1633-2
  MIC: 3.1 µg/mL (≈ 5.08 µM)
S. aureus Smith
  MIC: 1.6 µg/mL (≈ 2.62 µM)
Ser. marcescens A20019
  MIC: 0.1 µg/mL (≈ 0.164 µM)
[6]; 10 mg/kg im
  AUC: 3600 ng·h/mL
  half-life: 17 min
  concentration at 10 min: 8400 ng/mL
  concentration at 20 min: 5500 ng/mL
  concentration at 0.5 h: 3700 ng/mL
  concentration at 40 min: < 1600 ng/mL
[6]; 20 mg/kg im
  AUC: 9000 ng·h/mL
  half-life: 11 min
  concentration at 10 min: 22000 ng/mL
  concentration at 20 min: 15000 ng/mL
  concentration at 0.5 h: 8600 ng/mL
  concentration at 40 min: 5700 ng/mL
  concentration at 50 min: 2400 ng/mL
  concentration at 1 h: < 1600 ng/mL
[6]; 40 mg/kg im
  AUC: 16000 ng·h/mL
  half-life: 11 min
  concentration at 10 min: 43000 ng/mL
  concentration at 20 min: 27000 ng/mL
  concentration at 0.5 h: 14000 ng/mL
  concentration at 40 min: 7500 ng/mL
  concentration at 50 min: 3800 ng/mL
  concentration at 1 h: 2300 ng/mL
  concentration at 1.5 h: < 1600 ng/mL
